Data: patent US20100022559A1, “BISOXIMES AS FUNGICIDES” (BAYER CROPSCIENCE AG, priority 2006, published 2010)

experiment: logP determination by HPLC on a reversed-phase column (C 18), EEC Directive 79/831 Annex V.A8; type: physicochemical; conditions: method marker [a] (footnote not shown); isomer A / isomer B / isomer mixture as noted in the cell
Experimental: The stated logP values were determined in accordance with EEC Directive 79/831 Annex V.A8 by HPLC (high performance liquid chromatography) on a reversed-phase column (C 18). Temperature: 43° C.

logP	SMILES
2.23^[a]	CC(=NOCCCON=C(C)c1ccc(C)c(C)n1)c1ccc(C)c(C)n1 [Compound 72]
2.90^[a]	CC(=NOCCCON=C(C)c1ccc(C)cn1)c1ccc(C)cn1 [Compound 81]
4.44^[a]	CCC(=NOCCCON=C(CC)c1cccc(C)n1)c1cccc(C)n1 [Compound 90]
5.83^[a]	CCCC(=NOCCCON=C(CCC)c1cccc(C)n1)c1cccc(C)n1 [Compound 91]
6.61^[a]	CCCC(=NOCC(C)CON=C(CCC)c1cccc(C)n1)c1cccc(C)n1 (stereo not drawn) [Compound 112]
5.40^[a]	CCC(=NOCC(C)CON=C(CC)c1cccc(C)n1)c1cccc(C)n1 (stereo not drawn) [Compound 116]
2.99^[a]	CC(=NOCC(C)CON=C(C)c1ccc(C)c(C)n1)c1ccc(C)c(C)n1 (stereo not drawn) [Compound 118]
6.33^[a]	CC(=NOCC(C)CON=C(C)c1cc(-c2ccccc2)ccn1)c1cc(-c2ccccc2)ccn1 (stereo not drawn) [Compound 119]
6.95^[a]	CC(=NOCCCON=C(C)c1cccc(Cc2ccccc2)n1)c1cccc(Cc2ccccc2)n1 [Compound 131]
7.36^[a]	CC(=NOCCCON=C(C)c1cccc(CC(C)C)n1)c1cccc(CC(C)C)n1 [Compound 134]
2.98^[a]	CCc1ccnc(C(C)=NOCCCON=C(C)c2cc(CC)ccn2)c1 [Compound 136]
6.41^[a]	CC(=NOCC(C)CON=C(C)c1cccc(C(F)(F)F)n1)c1cccc(C(F)(F)F)n1 (stereo not drawn) [Compound 169]
7.36^[a]	CC(=NOCC(C)CON=C(C)c1cccc(Cc2ccccc2)n1)c1cccc(Cc2ccccc2)n1 (stereo not drawn) [Compound 173]
6.78^[a]	CCCc1cccc(C(C)=NOCCCON=C(C)c2cccc(CCC)n2)n1 [Compound 174]
7.36^[a]	CCCc1cccc(C(C)=NOCC(C)CON=C(C)c2cccc(CCC)n2)n1 (stereo not drawn) [Compound 175]
6.21^[a]	CCc1cccc(C(C)=NOCC(C)CON=C(C)c2cccc(CC)n2)n1 (stereo not drawn) [Compound 179]
5.43^[a]	CCc1cccc(C(C)=NOCCCON=C(C)c2cccc(CC)n2)n1 [Compound 180]

same assay, conditions: method marker [b]; isomer A / isomer B / isomer mixture as noted in the cell

logP	SMILES
2.23^[b]	CC(=NOCON=C(C)c1ccccn1)c1ccccn1 [Compound 59]
6.18^[b]	C=C(CON=C(C)c1ccc(C(F)(F)F)cn1)CON=C(C)c1ccc(C(F)(F)F)cn1 [Compound 61]
6.89^[b]	C=C(CON=C(C)c1cccc(CCC)n1)CON=C(C)c1cccc(CCC)n1 [Compound 62]
5.15^[b]	C=C(CON=C(C)c1ccc(C(F)(F)F)cn1)CON=C(C)c1cccc(C)n1 [Compound 66]
2.82^[b]	C=C(CON=C(C)c1ccc(C)c(C)n1)CON=C(C)c1ccc(C)c(C)n1 [Compound 67]
4.47^[b]	CC(=NOCCCCCCON=C(C)c1cccc(C)n1)c1cccc(C)n1 [Compound 73]
4.38^[b]	CC(=NOCCC(C)CCON=C(C)c1cccc(C)n1)c1cccc(C)n1 (stereo not drawn) [Compound 75]
4.43^[b]	C=C(CON=C(C)c1cccc(C)n1)CON=C(C)c1cccc(C(C)=O)n1 [Compound 117]
1.84^[b]	CC(=NOCCOCCON=C(C)c1cccc(C)n1)c1cccc(C)n1 [Compound 181]
2.55^[b]	C=C(CON=C(C)c1cccc(C)n1)CON=C(N)c1nc(C)c2c(n1)CCCC2 [Compound 182]
2.11^[b]	C=C(CON=C(C)c1cccc(C)n1)CON=C(N)c1nc(C)cc(OC)n1 [Compound 186]
2.69^[b]	C=C(CON=C(C)c1cccc(C)n1)CON=C(C)c1nc(C)cc(C)n1 [Compound 188]
2.92^[b]	C=C(CON=C(C)c1cccc(C)n1)CON=C(N)c1cc(C)cc(C)n1 [Compound 189]
5.25^[b]	C=C(CON=C(C)c1cccc(C)n1)CON=C(C)c1ccc2ccccc2n1 [Compound 202]
3.10^[b]	C=C(CON=C(C)c1cccc(C)n1)CON=C(C)c1ccc(C)c(C)n1 [Compound 204]
4.98^[b]	C=C(CON=C(C)c1cccc(C)n1)CON=C(C)c1cccc(Br)n1 [Compound 206]
